Experimental data published in patent US20250325529A1, “INHIBITORS OF FATTY ACID BINDING PROTEINS (FABPs), METHODS OF USE AND METHODS OF MAKING” (Celloram, inc., priority 2024, published 2025).

Experiments:
FABP7 = FABP7 (Homo sapiens (Human), UniProt O15540); assay: Fluorescence (ANS) competition binding assay, FABP7; conditions: ANS displacement
Procedure: (§1) This example illustrates a two-step fluorescence binding assay study used to determine the binding affinity of the various inhibitor compounds disclosed herein with the various FABPs: FABP3, FABP4, FABP5 and FABP7. Further secondary screening studies were carried out for compounds with high binding affinities toward the FABPs and based on their ability to activate the nuclear receptors PPARα, PPARγ, or PPARδ.
(§2) Binding assays for FABP3, FABP4, FABP5 and FABP7 were carried out by fluorescence titrations. His-tagged FABPs were bacterially expressed in E. coli, purified using Ni Sepharose beads, and the equilibrium dissociation constants (Kd) that characterize their interactions with different inhibitor compounds were measured by fluorescence competition assays. The method entails two steps as described in e.g., Lin, Q. et al., “Ligand selectivity of the peroxisome proliferator-activated receptor alpha,” Biochemistry 38, 185-190, doi:10.1021/bi9816094 [pii](1999). In the first step, Kd for the association of the protein with the fluorescent fatty acid probe ANS was measured. Protein (2 μM) was titrated with ANS from a concentrated solution in DMSO. Ligand binding was monitored by following the increase in the fluorescence of the ligand upon binding to the protein, and Kd for the association of ANS with the each FABP was computed from titration curves as described in e.g., Norris, A. W. & Li, E., “Fluorometric titration of the CRABPs,” Methods Mol Biol 89, 123-139 (1998)). In the second step, Kds for binding of non-fluorescent ligands were measured by monitoring their ability to displace ANS in the binding pocket of the protein. Each FABP was precomplexed with ANS at 1:1 molar ratio and titrated with the different compounds whose binding was reflected by a decrease in probe fluorescence. Kds were extracted from the EC50 of the competition curve and the measured Kd for ANS.

PPARδ = PPARδ (Homo sapiens (Human), UniProt Q03181); assay: Transcriptional activation assay in COS7 cells, PPARδ; assay type: cell-based; conditions: PPRE luciferase reporter, PD151 and PD152 at 10 μM
Procedure: (§3) COS-7 were cultured in 6-well plates and co-transfected with either a luciferase reporter driven by 3 copies of a PPRE and expression vector for either PPARδ, PPARα or PPARγ together with a vector harboring cDNA for β-galactosidase, serving as a transfection control. To test whether FABP4 or FABP5 mediate activation of their cognate receptors PPARγ and PPARδ, respectively, cells were also co-transfected with a plasmid harboring sequence of either FABP4 or FABP5. 18 h post-transfection, cells were placed in a serum-free medium and treated with agonist/compound. 18 h. later, cells were lysed, luciferase activity was assayed (Promega, WI, USA) and corrected for transfection efficiency by the activity of β-galactosidase.
(§4) Transcriptional activation assays were carried out utilizing COS7 cells as described above.

PPARγ = PPARγ (Homo sapiens (Human), UniProt P37231); assay: Transcriptional activation assay in COS7 cells, PPARγ; assay type: cell-based; conditions: PPRE luciferase reporter, PD151 and PD152 at 10 μM
Procedure: as §3, §4

FABP5 = FABP5 (Homo sapiens (Human), UniProt Q01469); assay: Fluorescence (ANS) competition binding assay, FABP5; conditions: ANS displacement
Procedure: as §1, §2

FABP4 = FABP4 (Homo sapiens (Human), UniProt P15090); assay: Fluorescence (ANS) competition binding assay, FABP4; conditions: ANS displacement
Procedure: as §1, §2

PPARα = PPARα (Homo sapiens (Human), UniProt Q07869); assay: Transcriptional activation assay in COS7 cells, PPARα; assay type: cell-based; conditions: PPRE luciferase reporter, PD151 and PD152 at 10 μM
Procedure: as §3, §4

FABP3 = FABP3 (Homo sapiens (Human), UniProt P05413); assay: Fluorescence (ANS) competition binding assay, FABP3; conditions: ANS displacement
Procedure: as §1, §2

[1] = tested on: Salmonella typhimurium tester strain TA1537; assay: Ames test (Bacterial Reverse Mutation Test), TA1537; assay type: cell-based
Procedure: (§5) PD152 (compound 2) was tested for genotoxic and cytotoxic side effects by Ames test. The Ames test is a Bacterial Reverse Mutation Test of mutagenicity that utilizes Salmonella typhimurium tester strains TA98, TA100, TA1535, TA1537 and Escherichia coli tester strain WP2 uvrA (pKM101), both in the presence and absence of S9.
(§6) The compound PD152 was tested at 10 concentrations (0.032-1000 μg/plate) in the presence of, or absence of, the hepatic enzyme S9.
(§7) The aniline FABP4/5 inhibitor compound, 2-((2-((2,4-dichloro-5-isopropoxyphenyl)amino)-2-oxoethyl)thio)-2-methylpropanoic acid (compound “B104” as disclosed in WO2023043803A1) also was tested for genotoxic and cytotoxic side effects by Ames test. […]

[2] = tested on: Salmonella typhimurium tester strain TA98; assay: Ames test (Bacterial Reverse Mutation Test), TA98; assay type: cell-based
Procedure: as §5, §6, §7

[3] = tested on: Salmonella typhimurium tester strains TA98, TA100, TA1535, TA1537 and Escherichia coli tester strain WP2 uvrA (pKM101); assay: Ames test, overall conclusion for the tested strains; assay type: cell-based; conditions: presence and absence of S9
Procedure: as §5, §6
(§8) The aniline FABP4/5 inhibitor compound, 2-((2-((2,4-dichloro-5-isopropoxyphenyl)amino)-2-oxoethyl)thio)-2-methylpropanoic acid (compound “B104” as disclosed in WO2023043803A1) also was tested for genotoxic and cytotoxic side effects by Ames test. B104 was tested using the Salmonella typhimurium tester stains TA98, TA100, TA1535, and TA1537, both in the presence and absence of the hepatic enzyme S9, at 5 concentrations (1.5-64 μg/plate).

[4] = tested on: Salmonella typhimurium tester strain TA1535; assay: Ames test (Bacterial Reverse Mutation Test), TA1535; assay type: cell-based
Procedure: as §5, §6, §8

[5] = tested on: Salmonella typhimurium tester strain TA100; assay: Ames test (Bacterial Reverse Mutation Test), TA100; assay type: cell-based
Procedure: as §5, §6, §8

[6] = TA1537, absence of S9, 1.5 μg/well
[7] = TA1537, absence of S9, 4 μg/well
[8] = TA1537, absence of S9, 10 μg/well
[9] = TA1537, absence of S9, 25 μg/well
[10] = TA1537, absence of S9, 64 μg/well
[11] = TA1537, presence of S9, 1.5 μg/well
[12] = TA1537, presence of S9, 4 μg/well
[13] = TA1537, presence of S9, 10 μg/well
[14] = TA1537, presence of S9, 25 μg/well
[15] = TA1537, presence of S9, 64 μg/well
[16] = TA98, absence of S9, 1.5 μg/well
[17] = TA98, absence of S9, 10 μg/well
[18] = TA98, absence of S9, 25 μg/well
[19] = TA98, absence of S9, 64 μg/well
[20] = TA98, presence of S9, 1.5 μg/well
[21] = TA98, presence of S9, 4 μg/well
[22] = TA98, presence of S9, 10 μg/well
[23] = TA98, presence of S9, 25 μg/well
[24] = TA98, presence of S9, 64 μg/well
[25] = TA1535, absence of S9, 1.5 μg/well
[26] = TA1535, absence of S9, 4 μg/well
[27] = TA1535, absence of S9, 10 μg/well
[28] = TA1535, absence of S9, 25 μg/well
[29] = TA1535, absence of S9, 64 μg/well
[30] = TA1535, presence of S9, 1.5 μg/well
[31] = TA1535, presence of S9, 4 μg/well
[32] = TA1535, presence of S9, 10 μg/well
[33] = TA1535, presence of S9, 25 μg/well
[34] = TA1535, presence of S9, 64 μg/well
[35] = TA100, absence of S9, 1.5 μg/well
[36] = TA100, absence of S9, 4 μg/well
[37] = TA100, absence of S9, 10 μg/well
[38] = TA100, absence of S9, 25 μg/well
[39] = TA100, absence of S9, 64 μg/well
[40] = TA100, presence of S9, 1.5 μg/well
[41] = TA100, presence of S9, 4 μg/well
[42] = TA100, presence of S9, 10 μg/well
[43] = TA100, presence of S9, 25 μg/well
[44] = TA100, presence of S9, 64 μg/well

PPARγ, sequence (P37231 whole entry, species assumed): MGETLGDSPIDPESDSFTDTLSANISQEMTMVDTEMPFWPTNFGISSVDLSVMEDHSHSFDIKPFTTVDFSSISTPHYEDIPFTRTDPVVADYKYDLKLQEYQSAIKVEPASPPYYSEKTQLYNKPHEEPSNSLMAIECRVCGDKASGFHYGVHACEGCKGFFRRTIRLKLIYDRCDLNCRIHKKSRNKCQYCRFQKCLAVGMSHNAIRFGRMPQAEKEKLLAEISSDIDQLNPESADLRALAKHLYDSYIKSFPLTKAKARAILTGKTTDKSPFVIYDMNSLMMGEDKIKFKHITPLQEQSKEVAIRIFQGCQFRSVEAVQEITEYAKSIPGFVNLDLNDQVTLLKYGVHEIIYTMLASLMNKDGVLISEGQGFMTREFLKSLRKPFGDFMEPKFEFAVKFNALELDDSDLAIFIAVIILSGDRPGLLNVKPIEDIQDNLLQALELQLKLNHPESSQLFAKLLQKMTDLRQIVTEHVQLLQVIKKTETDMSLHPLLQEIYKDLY
FABP4, sequence (P15090 whole entry, species assumed): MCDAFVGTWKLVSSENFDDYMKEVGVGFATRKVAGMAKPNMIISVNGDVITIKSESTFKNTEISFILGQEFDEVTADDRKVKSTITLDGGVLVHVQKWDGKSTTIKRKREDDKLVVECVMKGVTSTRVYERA
PPARα, sequence (Q07869 whole entry, species assumed): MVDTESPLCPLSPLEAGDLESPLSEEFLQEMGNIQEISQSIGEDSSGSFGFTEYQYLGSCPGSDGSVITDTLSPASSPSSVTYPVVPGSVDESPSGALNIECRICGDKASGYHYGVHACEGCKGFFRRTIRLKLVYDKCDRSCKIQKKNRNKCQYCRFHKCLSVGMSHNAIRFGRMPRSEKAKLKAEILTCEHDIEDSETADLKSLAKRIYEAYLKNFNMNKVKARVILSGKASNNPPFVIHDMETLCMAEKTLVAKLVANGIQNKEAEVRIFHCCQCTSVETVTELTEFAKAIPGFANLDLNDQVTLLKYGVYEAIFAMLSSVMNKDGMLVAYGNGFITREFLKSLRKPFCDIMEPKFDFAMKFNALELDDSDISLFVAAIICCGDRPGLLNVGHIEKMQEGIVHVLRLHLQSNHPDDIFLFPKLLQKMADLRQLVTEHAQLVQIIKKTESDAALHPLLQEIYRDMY
PPARδ, sequence (Q03181 whole entry, species assumed): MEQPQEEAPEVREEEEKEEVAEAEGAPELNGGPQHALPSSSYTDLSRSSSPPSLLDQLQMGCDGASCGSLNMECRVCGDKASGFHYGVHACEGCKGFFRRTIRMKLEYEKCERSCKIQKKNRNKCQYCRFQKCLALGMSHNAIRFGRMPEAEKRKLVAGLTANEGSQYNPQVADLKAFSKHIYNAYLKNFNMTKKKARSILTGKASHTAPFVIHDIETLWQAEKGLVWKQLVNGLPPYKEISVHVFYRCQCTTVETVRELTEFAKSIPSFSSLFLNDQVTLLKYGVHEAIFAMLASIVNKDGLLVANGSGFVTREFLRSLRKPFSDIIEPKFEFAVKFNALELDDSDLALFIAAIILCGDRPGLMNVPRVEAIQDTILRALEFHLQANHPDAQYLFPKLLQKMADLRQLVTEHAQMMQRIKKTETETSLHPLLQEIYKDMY
FABP3, sequence (P05413 whole entry, species assumed): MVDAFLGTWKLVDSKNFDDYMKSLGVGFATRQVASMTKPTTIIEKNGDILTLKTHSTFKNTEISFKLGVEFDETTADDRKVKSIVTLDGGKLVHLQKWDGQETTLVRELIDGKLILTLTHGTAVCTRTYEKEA
FABP7, sequence (O15540 whole entry, species assumed): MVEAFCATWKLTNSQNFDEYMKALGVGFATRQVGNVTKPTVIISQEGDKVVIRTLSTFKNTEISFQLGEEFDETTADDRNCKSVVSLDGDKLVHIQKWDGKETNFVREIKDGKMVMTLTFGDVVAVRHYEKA
FABP5, sequence (Q01469 whole entry, species assumed): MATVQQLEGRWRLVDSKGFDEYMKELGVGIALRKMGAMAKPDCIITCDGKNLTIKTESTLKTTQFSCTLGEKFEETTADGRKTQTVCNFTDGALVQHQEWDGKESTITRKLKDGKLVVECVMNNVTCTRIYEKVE

With `CC(C)Oc1ccc(Cl)c(NC(=O)CSCC(=O)O)n1` [PD152.2, 2-((2-((3-chloro-6-isopropoxypyridin-2-yl)amino)-2-oxoethyl)thio)acetic acid] the Kd (FABP7) was 1000 nM, the “Activation of transcription by PPARδ” value (PPARδ) was “None of these tested compounds activated” and the “Activation of transcription by PPARγ” value (PPARγ) was “None of these tested compounds activated”. For the same compound, the Kd (FABP5) was 141 nM, the Kd (FABP4) was 72 nM and the “Activation of transcription by PPARα” value (PPARα) was “None of these tested compounds activated”. The Kd (FABP3) was 125 nM.
In the case of `CC(C)Oc1cc(NC(=O)CSC(C)(C)C(=O)O)c(Cl)cc1Cl` [Compound B104, 2-((2-((2,4-dichloro-5-isopropoxyphenyl)amino)-2-oxoethyl)thio)-2-methylpropanoic acid, reference compound], the Fold increase [1, 6] is reported as 0.43, the “Mean number of revertants” value [1, 6] is reported as 2.0 and the Fold increase [1, 7] is reported as 0.32. The “Mean number of revertants” value [1, 7] was 1.5, the Fold increase [1, 8] was 0.21 and the “Mean number of revertants” value [1, 8] was 1.0. The Fold increase [1, 9] was 0, the “Mean number of revertants” value [1, 9] was 0 and the Fold increase [1, 10] was 0. The “Mean number of revertants” value [1, 10] was 0, the Fold increase [1, 11] was 1.71 and the “Mean number of revertants” value [1, 11] was 4.0. For the same compound, the Fold increase [1, 12] was 2.36, the “Mean number of revertants” value [1, 12] was 5.5 and the Fold increase [1, 13] was 1.29. For the same compound, the “Mean number of revertants” value [1, 13] was 3.0, the Fold increase [1, 14] was 1.07 and the “Mean number of revertants” value [1, 14] was 2.5. The Fold increase [1, 15] was 2.14, the “Mean number of revertants” value [1, 15] was 5.0 and the Fold increase [2, 16] was 1.26. The “Mean number of revertants” value [2, 16] was 16, the Fold increase ([2]; TA98, absence of S9, 4 μg/well) was 0.84 and the “Mean number of revertants” value ([2]; TA98, absence of S9, 4 μg/well) was 10.67. The Fold increase [2, 17] was 0.97, the “Mean number of revertants” value [2, 17] was 12.33 and the Fold increase [2, 18] was 0. For the same compound, the “Mean number of revertants” value [2, 18] was 0.33, the Fold increase [2, 19] was 0 and the “Mean number of revertants” value [2, 19] was 0.66. For the same compound, the Fold increase [2, 20] was 1.2, the “Mean number of revertants” value [2, 20] was 20.67 and the Fold increase [2, 21] was 2.3. The “Mean number of revertants” value [2, 21] was 39, the Fold increase [2, 22] was 2.88 and the “Mean number of revertants” value [2, 22] was 49. The Fold increase [2, 23] was 2.7, the “Mean number of revertants” value [2, 23] was 47.67 and the Fold increase [2, 24] was 1.5. For the same compound, the “Mean number of revertants” value [2, 24] was 26, the “Cytotoxicity to the tested strains” value [3] was “some level of cytotoxicity” and the “Mutagenicity in the Ames test” value [3] was “positive mutagenic responses”. The Fold increase [4, 25] was 1.20, the “Mean number of revertants” value [4, 25] was 4 and the Fold increase [4, 26] was 2.20. For the same compound, the “Mean number of revertants” value [4, 26] was 7.33, the Fold increase [4, 27] was 1.40 and the “Mean number of revertants” value [4, 27] was 4.67. The Fold increase [4, 28] was 0.20, the “Mean number of revertants” value [4, 28] was 0.67 and the Fold increase [4, 29] was 0. For the same compound, the “Mean number of revertants” value [4, 29] was 0, the Fold increase [4, 30] was 0.89 and the “Mean number of revertants” value [4, 30] was 5.67. For the same compound, the Fold increase [4, 31] was 1, the “Mean number of revertants” value [4, 31] was 6.33 and the Fold increase [4, 32] was 1.06. The “Mean number of revertants” value [4, 32] was 6.67, the Fold increase [4, 33] was 1.68 and the “Mean number of revertants” value [4, 33] was 10.67. For the same compound, the Fold increase [4, 34] was 1, the “Mean number of revertants” value [4, 34] was 6.33 and the Fold increase [5, 35] was 0.8. For the same compound, the “Mean number of revertants” value [5, 35] was 52, the Fold increase [5, 36] was 1.05 and the “Mean number of revertants” value [5, 36] was 68. The Fold increase [5, 37] was 0.86, the “Mean number of revertants” value [5, 37] was 56 and the Fold increase [5, 38] was 0. For the same compound, the “Mean number of revertants” value [5, 38] was 0, the Fold increase [5, 39] was 0 and the “Mean number of revertants” value [5, 39] was 0.67. For the same compound, the Fold increase [5, 40] was 3, the “Mean number of revertants” value [5, 40] was 387 and the Fold increase [5, 41] was 5.18. The “Mean number of revertants” value [5, 41] was 658, the Fold increase [5, 42] was 6.68 and the “Mean number of revertants” value [5, 42] was 849. The Fold increase [5, 43] was 6.55, the “Mean number of revertants” value [5, 43] was 833 and the Fold increase [5, 44] was 4.44. The “Mean number of revertants” value [5, 44] was 564.5.
